# Measured values published in ChEMBL document CHEMBL1201862, “PubChem BioAssay data set” (2004).
#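 Growth conditions: 96-well plates. Treatment: test compound, 48 hours, 5 concentrations. Analysis: linear interpolation between bracketing concentrations; unreached endpoints set to highest concentration. GI50 = concentration required for 50% inhibition of growth.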 Active and inactive are the calls of the source. Rule as the data show it: active = GI50 up to about 1.1 µM and inactive = higher.
# What was measured:
# Experiment in all cases: NCI-60 cell line screen, 48 h
# SF-295 = system: SF-295
# UO-31 = system: UO-31
# SK-MEL-28 = system: SK-MEL-28
# NCI/ADR-RES = system: NCI/ADR-RES
# MCF7 = system: MCF7
# HT-29 = system: HT-29
# OVCAR-5 = system: OVCAR-5
# MDA-MB-231 = system: MDA-MB-231
# UACC-62 = system: UACC-62
# T47D = system: T47D
# NCI-H522 = system: NCI-H522
# DU-145 = system: DU-145
# OVCAR-8 = system: OVCAR-8
# EKVX = system: EKVX
# 786-0 = system: 786-0
# M14 = system: M14
# CAKI-1 = system: CAKI-1
# Malme-3M = system: Malme-3M
# HCT-116 = system: HCT-116
# K562 = system: K562
# LOX IMVI = system: LOX IMVI
# OVCAR-4 = system: OVCAR-4
# PC-3 = system: PC-3
# MOLT-4 = system: MOLT-4
# SN12C = system: SN12C
# HCT-15 = system: HCT-15
# Hs-578T = system: Hs-578T
# BT-549 = system: BT-549
# HOP-62 = system: HOP-62
# ACHN = system: ACHN
# SF-268 = system: SF-268
# SR = system: SR
# TK-10 = system: TK-10
# RPMI-8226 = system: RPMI-8226
# KM12 = system: KM12
# SK-MEL-5 = system: SK-MEL-5
# NCI-H460 = system: NCI-H460
# CCRF-CEM = system: CCRF-CEM
# SNB-19 = system: SNB-19
# SK-OV-3 = system: SK-OV-3
# IGROV-1 = system: IGROV-1
# NCI-H23 = system: NCI-H23
# MDA-N = system: MDA-N
# UACC-257 = system: UACC-257
# COLO 205 = system: COLO 205
# U-251 = system: U-251
# HL-60 = system: HL-60
# A549 = system: A549
# OVCAR-3 = system: OVCAR-3
# MDA-MB-435 = system: MDA-MB-435
# NCI-H226 = system: NCI-H226
# SW-620 = system: SW-620
# RXF 393 = system: RXF 393
# A498 = system: A498
# SF-539 = system: SF-539
# SK-MEL-2 = system: SK-MEL-2
# HCC 2998 = system: HCC 2998
# HOP-92 = system: HOP-92
structure (smiles),measurement,setting,value
OC(c1ccccc1)(c1ccccc1)c1nccc2ccccc12,GI50,SF-295,15.8 µM (inactive)
same,GI50,UO-31,17.8 µM (inactive)
same,GI50,SK-MEL-28,22.6 µM (inactive)
same,GI50,NCI/ADR-RES,34.6 µM (inactive)
same,GI50,MCF7,35.2 µM (inactive)
same,GI50,HT-29,26.8 µM (inactive)
same,GI50,OVCAR-5,31.7 µM (inactive)
same,GI50,MDA-MB-231,37.7 µM (inactive)
same,GI50,UACC-62,21.5 µM (inactive)
same,GI50,T47D,27.3 µM (inactive)
same,GI50,NCI-H522,16.7 µM (inactive)
same,GI50,DU-145,41.7 µM (inactive)
same,GI50,OVCAR-8,37.8 µM (inactive)
same,GI50,EKVX,20.7 µM (inactive)
same,GI50,786-0,55 µM (inactive)
same,GI50,M14,20.8 µM (inactive)
same,GI50,CAKI-1,20.1 µM (inactive)
same,GI50,Malme-3M,30 µM (inactive)
same,GI50,HCT-116,27.9 µM (inactive)
same,GI50,K562,> 10 µM (inactive)
same,GI50,LOX IMVI,17.6 µM (inactive)
same,GI50,OVCAR-4,31.6 µM (inactive)
same,GI50,PC-3,22.2 µM (inactive)
same,GI50,MOLT-4,16.7 µM (inactive)
same,GI50,SN12C,44.5 µM (inactive)
same,GI50,HCT-15,37.3 µM
same,GI50,Hs-578T,28.5 µM (inactive)
same,GI50,BT-549,14.3 µM (inactive)
same,GI50,HOP-62,18.9 µM (inactive)
same,GI50,ACHN,37.6 µM (inactive)
same,GI50,SF-268,44.2 µM (inactive)
same,GI50,SR,37.8 µM (inactive)
same,GI50,TK-10,12.9 µM (inactive)
same,GI50,RPMI-8226,38.3 µM (inactive)
same,GI50,KM12,35.9 µM (inactive)
same,GI50,SK-MEL-5,14.1 µM (inactive)
same,GI50,NCI-H460,17.3 µM (inactive)
same,GI50,CCRF-CEM,23.6 µM (inactive)
same,GI50,SNB-19,27.9 µM (inactive)
same,GI50,SK-OV-3,22.5 µM (inactive)
same,GI50,IGROV-1,40 µM (inactive)
same,GI50,NCI-H23,20.8 µM (inactive)
same,GI50,MDA-N,30.1 µM (inactive)
same,GI50,UACC-257,31 µM (inactive)
same,GI50,COLO 205,28.1 µM (inactive)
same,GI50,U-251,29.3 µM (inactive)
same,GI50,HL-60,32.3 µM (inactive)
same,GI50,A549,36.9 µM (inactive)
same,GI50,OVCAR-3,17.2 µM (inactive)
same,GI50,MDA-MB-435,30.8 µM (inactive)
O=c1[nH]nc(Cc2c[nH]c3ccccc23)o1,GI50,NCI-H226,> 100 µM (inactive)
same,GI50,SW-620,> 100 µM (inactive)
same,GI50,SF-295,> 100 µM (inactive)
same,GI50,UO-31,> 100 µM (inactive)
same,GI50,SK-MEL-28,> 100 µM (inactive)
same,GI50,NCI/ADR-RES,> 100 µM (inactive)
same,GI50,MCF7,> 100 µM (inactive)
same,GI50,HT-29,> 100 µM (inactive)
same,GI50,OVCAR-5,> 100 µM (inactive)
same,GI50,RXF 393,> 100 µM (inactive)
same,GI50,MDA-MB-231,> 100 µM (inactive)
same,GI50,UACC-62,> 100 µM (inactive)
same,GI50,T47D,> 100 µM (inactive)
same,GI50,NCI-H522,> 100 µM (inactive)
same,GI50,DU-145,> 100 µM (inactive)
same,GI50,OVCAR-8,> 100 µM (inactive)
same,GI50,EKVX,> 100 µM (inactive)
same,GI50,786-0,> 100 µM (inactive)
same,GI50,M14,> 100 µM (inactive)
same,GI50,A498,> 100 µM (inactive)
same,GI50,SF-539,> 100 µM (inactive)
same,GI50,CAKI-1,> 100 µM (inactive)
same,GI50,Malme-3M,> 100 µM (inactive)
same,GI50,SK-MEL-2,> 100 µM (inactive)
same,GI50,HCT-116,> 100 µM (inactive)
same,GI50,K562,> 100 µM (inactive)
same,GI50,LOX IMVI,> 100 µM (inactive)
same,GI50,OVCAR-4,> 100 µM (inactive)
same,GI50,PC-3,> 100 µM (inactive)
same,GI50,MOLT-4,> 100 µM (inactive)
same,GI50,SN12C,> 100 µM (inactive)
same,GI50,HCC 2998,> 100 µM (inactive)
same,GI50,HCT-15,> 100 µM
same,GI50,Hs-578T,> 100 µM (inactive)
same,GI50,BT-549,> 100 µM (inactive)
same,GI50,HOP-62,> 100 µM (inactive)
same,GI50,ACHN,> 100 µM (inactive)
same,GI50,SF-268,> 100 µM (inactive)
same,GI50,HOP-92,> 100 µM (inactive)
same,GI50,TK-10,> 100 µM (inactive)
same,GI50,RPMI-8226,> 100 µM (inactive)
same,GI50,KM12,> 100 µM (inactive)
same,GI50,SK-MEL-5,> 100 µM (inactive)
same,GI50,CCRF-CEM,> 100 µM (inactive)
same,GI50,SNB-19,> 100 µM (inactive)
same,GI50,IGROV-1,> 100 µM (inactive)
same,GI50,NCI-H23,> 100 µM (inactive)
same,GI50,MDA-N,> 100 µM (inactive)
same,GI50,UACC-257,> 100 µM (inactive)
same,GI50,COLO 205,> 100 µM (inactive)
same,GI50,U-251,> 100 µM (inactive)
same,GI50,HL-60,> 100 µM (inactive)
same,GI50,A549,> 100 µM (inactive)
same,GI50,OVCAR-3,> 100 µM (inactive)
same,GI50,MDA-MB-435,> 100 µM (inactive)
Cc1ccc(/C=C2\N=C(N3CCCCC3)NC2=O)cc1,GI50,NCI-H226,> 100 µM (inactive)
same,GI50,SW-620,> 100 µM (inactive)
same,GI50,SF-295,> 100 µM (inactive)
same,GI50,UO-31,> 100 µM (inactive)
same,GI50,SK-MEL-28,> 100 µM (inactive)
same,GI50,NCI/ADR-RES,70.8 µM (inactive)
same,GI50,MCF7,> 100 µM (inactive)
same,GI50,HT-29,95.9 µM (inactive)
same,GI50,OVCAR-5,> 100 µM (inactive)
same,GI50,RXF 393,> 100 µM (inactive)
same,GI50,MDA-MB-231,> 100 µM (inactive)
same,GI50,UACC-62,> 100 µM (inactive)
same,GI50,T47D,58.1 µM (inactive)
same,GI50,NCI-H522,74.5 µM (inactive)
same,GI50,DU-145,> 100 µM (inactive)
same,GI50,OVCAR-8,64.1 µM (inactive)
same,GI50,EKVX,> 100 µM (inactive)
same,GI50,786-0,> 100 µM (inactive)
same,GI50,M14,> 100 µM (inactive)
same,GI50,SF-539,> 100 µM (inactive)
same,GI50,CAKI-1,> 100 µM (inactive)
same,GI50,Malme-3M,> 100 µM (inactive)
same,GI50,SK-MEL-2,> 100 µM (inactive)
same,GI50,HCT-116,> 100 µM (inactive)
same,GI50,LOX IMVI,94.4 µM (inactive)
same,GI50,OVCAR-4,> 100 µM (inactive)
same,GI50,PC-3,> 100 µM (inactive)
same,GI50,MOLT-4,> 100 µM (inactive)
same,GI50,SN12C,> 100 µM (inactive)
same,GI50,HCC 2998,58.1 µM (inactive)
same,GI50,HCT-15,> 100 µM
same,GI50,Hs-578T,70.8 µM (inactive)
same,GI50,BT-549,> 100 µM (inactive)
same,GI50,HOP-62,> 100 µM (inactive)
same,GI50,ACHN,> 100 µM (inactive)
same,GI50,SF-268,98.6 µM (inactive)
same,GI50,HOP-92,> 100 µM (inactive)
same,GI50,SR,> 100 µM (inactive)
same,GI50,TK-10,> 100 µM (inactive)
same,GI50,RPMI-8226,60.8 µM (inactive)
same,GI50,KM12,> 100 µM (inactive)
same,GI50,CCRF-CEM,> 100 µM (inactive)
same,GI50,SNB-19,> 100 µM (inactive)
same,GI50,SK-OV-3,> 100 µM (inactive)
same,GI50,NCI-H23,> 100 µM (inactive)
same,GI50,MDA-N,> 100 µM (inactive)
same,GI50,UACC-257,> 100 µM (inactive)
same,GI50,COLO 205,> 100 µM (inactive)
same,GI50,U-251,> 100 µM (inactive)
same,GI50,HL-60,71.1 µM (inactive)
same,GI50,A549,> 100 µM (inactive)
same,GI50,OVCAR-3,> 100 µM (inactive)
same,GI50,MDA-MB-435,> 100 µM (inactive)
